Test results taken from US12285394B2, “Ketogenic compounds, compositions, methods and use thereof” (9500-0535 QUEBEC INC., priority 2018, dated 2025).

Assay: pH of the compounds
Type: physicochemical

## CC(O)CC(=O)O (stereo not drawn) [BHB, β-hydroxybutyric acid]
  pKa: ~4.4
